Results published in patent US12497393B2, “β-lactam compound, use thereof and preparation method therefor” (priority 2020, dated 2025).
Converted amounts (≈) assume the structure as drawn. Where two headings read alike, the source gives them in different places.

Columns and labels:
Assay in all cases: Antibacterial activity MIC assay (two-fold dilution agar plating)
Type in all cases: cell-based
[1] = tested on: Acinetobacter baumannii; details: Acinetobacter baumannii, read-out: Minimal Inhibitory Concentration (MIC)
Method in brief: (§1)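 MIC = lowest drug concentration with no visible growth after 18 h at 35 °C. Agar two-fold dilution (CLSI/NCCLS), 0.03–128.0 μg/mL; ATCC and clinical strains.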

[2] = tested on: Citrobacter freundii; details: ATCC43864; Citrobacter freundii ATCC 43864; read-out: Minimal Inhibitory Concentration (MIC)
Method in brief: as §1

[3] = tested on: Enterobacter aerogenes; details: Klebsiella aerogenes, ATCC13048; Enterobacter aerogenes ATCC 13048; read-out: Minimal Inhibitory Concentration (MIC)
Method in brief: as §1

[4] = tested on: Enterobacter cloacae; details: read-out: Minimal Inhibitory Concentration (MIC)
Method in brief: as §1

[5] = tested on: Escherichia coli; details: Escherichia coli, read-out: Minimal Inhibitory Concentration (MIC)
Method in brief: as §1

[6] = tested on: Klebsiella Pneumoniae; details: Klebsiella pneumoniae, read-out: Minimal Inhibitory Concentration (MIC)
Method in brief: as §1

[7] = tested on: Proteus mirabilis; details: Proteus mirabilis, ATCC49565, Proteus mirabilis ATCC 49565; read-out: Minimal Inhibitory Concentration (MIC)
Method in brief: as §1

[8] = tested on: Proteus vulgaris; details: Proteus vulgaris, ATCC29905, Proteus vulgaris ATCC 29905; read-out: Minimal Inhibitory Concentration (MIC)
Method in brief: as §1

[9] = tested on: Providencia rettgeri; details: Providencia rettgeri, ATCC31052, Providencia rettgeri ATCC 31052; read-out: Minimal Inhibitory Concentration (MIC)
Method in brief: as §1

[10] = tested on: Pseudomonas aeruginosa; details: read-out: Minimal Inhibitory Concentration (MIC)
Method in brief: as §1

[11] = tested on: Salmonella typhi; details: Salmonella enterica, TYPHI, read-out: Minimal Inhibitory Concentration (MIC)
Method in brief: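 Agar plates carrying two-fold compound dilutions (0.03–128.0 μg/mL) were spot-inoculated with ATCC or clinically isolated bacteria and kept at 35 °C for 18 hours; the lowest growth-free concentration gave the MIC.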

[12] = tested on: Serratia marcescens; details: ATCC21074; Serratia marcescens ATCC 21074; read-out: Minimal Inhibitory Concentration (MIC)
Method in brief: as §1

[13] = tested on: Shigella flexneri; details: ATCC12022; Shigella flexneri ATCC 12022; read-out: Minimal Inhibitory Concentration (MIC)
Method in brief: as §1

[14] = tested on: Stenotrophomonas maltophilia; details: ATCC13636; Stenotrophomonas maltophilia ATCC 13636; read-out: Minimal Inhibitory Concentration (MIC)
Method in brief: as §1

**Q.** What does the source list for C[C@H]1COc2c(N3CCN(C)CC3)c(F)cc3c(=O)c(C(=O)O)cn1c23 [Levofloxacin, levofloxacin, reference compound]?
**A.** MIC ([1]; ATCC19606, Acinetobacter baumannii ATCC 19606): 0.25 µg/mL (≈ 0.692 µM); MIC ([1]; Acinetobacter baumannii 16-16): 16 µg/mL (≈ 44.3 µM); MIC ([1]; Acinetobacter baumannii 16-33): 2 µg/mL (≈ 5.53 µM); MIC [2]: ≤ 0.03 µg/mL; MIC [3]: 0.06 µg/mL (≈ 0.166 µM); MIC ([4]; ATCC43560, Enterobacter cloacae ATCC 43560): ≤ 0.03 µg/mL; MIC ([4]; Enterobacter cloacae CDC1000654): 32 µg/mL (≈ 88.6 µM); MIC ([5]; ATCC25922, Escherichia coli ATCC 25922, ESBLs(−)): ≤ 0.03 µg/mL; MIC ([5]; ATCC35218, Escherichia coli ATCC 35218, ESBLs(+)): ≤ 0.03 µg/mL; MIC ([5]; Escherichia coli 08-85, mcr-1(+)): 16 µg/mL (≈ 44.3 µM); MIC ([5]; Escherichia coli 13-43, mcr-1(+)): 32 µg/mL (≈ 88.6 µM); MIC ([5]; Escherichia coli 13-66, mcr-1(+)): 32 µg/mL (≈ 88.6 µM); MIC ([5]; Escherichia coli 16-1, ESBLs(+)): 0.5 µg/mL (≈ 1.38 µM); MIC ([5]; Escherichia coli 16-7, ESBLs(−)): 0.5 µg/mL (≈ 1.38 µM); MIC ([5]; Escherichia coli 17-R28, CRE, NDM-1(+)): 8 µg/mL (≈ 22.1 µM); MIC ([5]; Escherichia coli CDC1001728, NDM-1(+)): 8 µg/mL (≈ 22.1 µM); MIC ([6]; ATCC700603, Klebsiella Pneumoniae ATCC 700603, ESBLs(+)): 0.5 µg/mL (≈ 1.38 µM); MIC ([6]; ATCCBAA2146, Klebsiella Pneumoniae ATCC BAA-2146, NDM-1(+)): 128 µg/mL (≈ 354 µM); MIC ([6]; Klebsiella Pneumoniae 09-20, mcr-1(+)): 16 µg/mL (≈ 44.3 µM); MIC ([6]; Klebsiella Pneumoniae 16-2, ESBLs(−)): 0.06 µg/mL (≈ 0.166 µM); MIC ([6]; Klebsiella Pneumoniae 16-14, ESBLs(+)): 0.5 µg/mL (≈ 1.38 µM); MIC [7]: ≤ 0.03 µg/mL; MIC [8]: ≤ 0.03 µg/mL; MIC [9]: ≤ 0.03 µg/mL; MIC ([10]; ATCC27853, Pseudomonas aeruginosa ATCC 27853): 1 µg/mL (≈ 2.77 µM); MIC ([10]; Pseudomonas aeruginosa 16-11): 0.5 µg/mL (≈ 1.38 µM); MIC ([10]; Pseudomonas aeruginosa PAO1): 4 µg/mL (≈ 11.1 µM); MIC [11]: ≤ 0.03 µg/mL; MIC [12]: 0.12 µg/mL (≈ 0.332 µM); MIC [13]: 0.06 µg/mL (≈ 0.166 µM); MIC [14]: 2 µg/mL (≈ 5.53 µM)
